Source: article PMC6588697, “Lugdunin amplifies innate immune responses in the skin in synergy with host- and microbiota-derived factors” (Nature Communications, 2019)
Values joined by “and” are separate entries in the source; they are usually repeats but may differ in a detail not shown here. Equal values may be shown once.

Key:
[1] = system: PBMCs; experiment: Cytokine release into PBMC supernatant (LEGENDplex / ELISA); format: cell-based, human; conditions: 5 h, lugdunin 2 µM or Pam2Cys 100 ng/mL, two technical replicates, Fig 1f
Method: (§1) Fig. 1 Lugdunin sensitizes epithelial cells for innate immune defense. a Primary human keratinocytes (PHKs) were pretreated with S. epidermidis conditioned medium (CM), indicated lugdunin concentrations, or the combination of both for 20 h. Subsequently, cells were infected with S. aureus for 1.5 h followed by cell lysis and determination of colony-forming units (CFUs). Shown is one representative experiment of three independent experiments with six technical replicates ± s.e.m. n.s., not significant. b Dorsal skin of mice was pretreated with S. epidermidis CM, 1.5 µg lugdunin alone or in combination with S. epidermidis CM for 24 h. Subsequently, S. aureus CFUs were determined. Horizontal lines represent the mean of each group ± s.e.m. c PHKs were treated with 2 μM lugdunin or with S. epidermidis CM alone or in combination for 20 h and subsequently expression of indicated antimicrobial peptides (AMPs) (respective protein names in brackets) was analyzed and normalized to actin. Shown is one representative experiment of three independent experiments with two technical replicates ± s.e.m. d PHKs were treated with 2 µM lugdunin or 100 ng/mL Pam2Cys for 5 h and subsequently the concentration of indicated cytokines in the supernatant was analyzed by LEGENDplex^TM (BioLegend). […]

[2] = system: PHKs; experiment: Cytokine release into PHK supernatant (LEGENDplex / ELISA); format: cell-based, human; conditions: 5 h, lugdunin 2 µM or Pam2Cys 100 ng/mL, two technical replicates
Method: Fig. 1 Lugdunin sensitizes epithelial cells for innate immune defense. a Primary human keratinocytes (PHKs) were pretreated with S. epidermidis conditioned medium (CM), indicated lugdunin concentrations, or the combination of both for 20 h. Subsequently, cells were infected with S. aureus for 1.5 h followed by cell lysis and determination of colony-forming units (CFUs). Shown is one representative experiment of three independent experiments with six technical replicates ± s.e.m. n.s., not significant. b Dorsal skin of mice was pretreated with S. epidermidis CM, 1.5 µg lugdunin alone or in combination with S. epidermidis CM for 24 h. Subsequently, S. aureus CFUs were determined. Horizontal lines represent the mean of each group ± s.e.m. c PHKs were treated with 2 μM lugdunin or with S. epidermidis CM alone or in combination for 20 h and subsequently expression of indicated antimicrobial peptides (AMPs) (respective protein names in brackets) was analyzed and normalized to actin. Shown is one representative experiment of three independent experiments with two technical replicates ± s.e.m. d PHKs were treated with 2 µM lugdunin or 100 ng/mL Pam2Cys for 5 h and subsequently the concentration of indicated cytokines in the supernatant was analyzed by LEGENDplex^TM (BioLegend). Shown is one representative experiment of three independent experiments with two technical replicates ± s.e.m. e PHKs were treated with increasing concentrations of lugdunin or 100 ng/mL Pam2Cys or Pam3Cys for 5 h and subsequently expression of chemokine (C-X-C motif) ligand 8 (CXCL8) was analyzed and normalized to actin. Shown is one representative experiment of three independent experiments, each with two technical replicates ± s.e.m. f, g Indicated cells were treated with 2 µM lugdunin or 100 ng/mL Pam2Cys as a positive control for 5 h and subsequently the concentration of CXCL8 (f) and interleukin-1α (IL-1α) (g) in the supernatant was analyzed by LEGENDplex^TM (BioLegend) and enzyme-linked immunosorbent assay (ELISA) (R&D Systems). Shown is one representative experiment of three independent experiments with two technical replicates ± s.e.m. Significant differences to control treatments were analyzed by ordinary one-way analysis of variance (ANOVA) followed by Dunnett’s multiple comparisons test (*P < 0.05; **P < 0.01; ***P < 0.001; ****P < 0.0001). n.d. = not detected. Source data are provided as a Source Data file
For cytokine analysis from cell cultures, 10 µL of supernatant was used for cytokine analysis via the LEGENDplex^TM human inflammation panel (BioLegend). For cytokine analysis from mouse skin, 4 mm skin punches were cultured in an airlift system where only the dermis had access to medium for 10 h. Skin punches were cultured in RPMI containing 1% FCS (Biochrom/Merck Millipore), 1% penicillin and streptomycin (Gibco/Life Technologies) and 0.25 µg/mL amphotericin B (CELLnTEC). Ten microliters of a 3-fold dilution of culture supernatant was used for cytokine analysis via the LEGENDplex^TM mouse inflammation panel (BioLegend). Samples were acquired in duplicates using a BD LSRII flow cytometer (BD Biosciences) and LEGENDplex^TM Software (BioLegend).
For IL-1α analysis, 100 µL of cell culture supernatant was analyzed via ELISA (R&D Systems) according to manufacturer’s instruction. For MIP-2 analysis, 100 µL of a 5-fold dilution from skin cultures supernatant was used and analyzed via ELISA (R&D Systems) according to the manufacturer’s instruction. For LL-37 ELISA, ELISA plates (Nunc) were coated overnight at 4 °C with 100 µL of cell culture supernatant or 2-fold dilutions of LL-37 starting from 8 µg/mL. The next day, the plate was washed three times using PBS + 0.5% BSA + 0.05% Triton X-100, followed by incubation with 100 µL primary antibody against hCAP18/LL-37 (HycultBiotech, Cat#HM2071, 1:120 in PBS + 0.5% BSA + 0.05% Triton X-100) at 37 °C for 1 h. […]

[3] = system: HTEpCs; experiment: CXCL8 expression in HTEpCs (qRT-PCR); format: cell-based, human; conditions: 5 h, two technical replicates
Method: Quantitative reverse transcription-polymerase chain reaction (qRT-PCR) was performed in 10 µL reaction volume with SYBR^TM Green PCR Master Mix (Thermo Fisher) according to the manufacturer’s instructions using a LightCycler 96 (Roche Life Science). The initial denaturation step was at 95 °C for 5 min, followed by 40 cycles with 10 s each for the denaturation step at 95 °C, the annealing at individual temperature, and the elongation at 72 °C. Primer sequences and respective annealing temperatures are listed in Supplementary Table 1. […]
31 g+h+i: HNEpCs (b), HTEpCs (c) or PBMCs (d) were treated with increasing
32 concentrations of lugdunin (grey bars) or 100 ng/mL Pam2Cys or Pam3Cys (white
33 bars) as positive controls for 5 hours and subsequently expression of CXCL8 was
34 analyzed and normalized to actin. Black bar: medium control. Shown is one
35 representative experiment of three independent experiments with two technical
36 replicates +/-s.e.m. Significant differences to control treatments were analyzed by
37 ordinary one-way ANOVA followed by Dunnett’s multiple comparisons test (*P<0.05; […]

[4] = system: S. aureus; experiment: Adhesion and invasion assay: S. aureus on pretreated PHKs (CFU); format: cell-based, Staphylococcus aureus; conditions: lugdunin alone; text to Fig 1a
Method: as §1

Substance: Lugdunin
- CXCL8 concentration in supernatant [1]: 231.761 and 233.451
- CXCL8 concentration in supernatant ([2]; LEGENDplex, Fig 1d): 62.009 and 63.022
- CXCL8 concentration in supernatant ([2]; Fig 1f): 186.026 and 189.663
- IFN concentration in supernatant (first line IFN, r44) ([2]; Fig 1d): 0.000
- IFN concentration in supernatant (second line IFN, r45) ([2]; Fig 1d): 0.000
- IL-1 concentration in supernatant (first line IL-1, r43) ([2]; Fig 1d): 0.000
- IL-1 concentration in supernatant (second line IL-1, r47) ([2]; Fig 1d): 0.000
- IL-6 concentration in supernatant ([2]; Fig 1d): 0.000
- IL-10 concentration in supernatant ([2]; Fig 1d): 0.000
- IL-12p70 concentration in supernatant ([2]; Fig 1d): 0.000
- IL-18 concentration in supernatant ([2]; Fig 1d): 0.000
- IL-23 concentration in supernatant ([2]; Fig 1d): 0.000
- IL-33 concentration in supernatant ([2]; Fig 1d): 0.000
- MCP-1 concentration in supernatant ([2]; Fig 1d): 219.647 and 222.665
- TNF concentration in supernatant ([2]; Fig 1d): 0.000
- CXCL8 fold induction ([3]; lugdunin 0.5 µM, sheet Supp Fig 1g): 1.537 and 1.231
- CXCL8 fold induction ([3]; lugdunin 1 µM): 4.112 and 4.228
- CXCL8 fold induction ([3]; lugdunin 2 µM): 16.564 and 16
- CXCL8 fold induction ([3]; lugdunin 3 µM): 18.001 and 14.929
- CXCL8 fold induction ([3]; lugdunin 5 µM): 23.264 and 22.316
- CXCL8 fold induction ([3]; lugdunin 10 µM): 16.056 and 17.328
- lugdunin concentration at which pretreatment of PHKs significantly reduced the number of adhering S. aureus [4]: ≥ 2 µM
